This assay concerns the target T1, α-synuclein (α-Syn, αSyn), monomeric (Homo sapiens, UniProt P37840).
T1 construct: gene SNCA; purified, unfolded monomer
Briefly: intrinsic tyrosine fluorescence quenching, modified Stern-Volmer plot. Conditions: 37 °C; protein 0.3 mg/mL, Cyanidin 2-30 μM; about 1:1; double-log; printed '8.4×10[5]'; paper calls it weak binding (mM range), which conflicts with this value.

The molecule `Oc1cc(O)c2cc(O)c(-c3ccc(O)c(O)c3)[o+]c2c1` [Cyanidin] returned a Ka of 840000 M⁻¹.

(Values after article doi:10.1101/2025.08.21.671593v1, “Suppression and modulation mechanism underlying the flavonoid-induced inhibition of fibrillation of α-synuclein” (biorxiv, 2025).)
